Source: patent publication US20130197073A1, “HYPOCHOLESTEROLEMIC, ANTI-INFLAMMATORY AND ANTIEPILEPTIC NEUROPROTECTIVE COMPOUND” (NEURON BIOPHARMA, S.A., priority 2010, published 2013)

What was measured:
[1] = test system: zebrafish (Danio rerio, AB strain) embryos; experiment: Zebrafish embryo acute toxicity, mortality (OECD C.15); format: in vivo; conditions: for Mortality (dead larvae with respect to the total): 3 days
Experimental: 30 control animals treated with dilution water and with daily replacement until the end of the assay.
30 animals treated with compound NST0060 (3 embryos for every ten replicates) diluted in dilution water at doses between 1 and 100 mg/Kg and with daily replacement of the substance during the days that the assay lasted.
After the time of exposure to the substances under study, the mortality record of the larvae was determined, results being shown in Table 2.

[2] = test system: human neuroblastoma SK-N-MC cells; experiment: Protection against neuronal death induced by oxidative stress (xanthine/xanthine oxidase), WST-1; format: cell-based; conditions: NST0060 at 10 μM; 10 μM xanthine/60 mU/mL xanthine oxidase, 22 hours; protection significant from 1 to 40 μM
Experimental: The assay was performed on human neuroblastoma SK-N-MC cells in culture from the American Type Culture Collection (ATCC), in all cases strict rules of sterility were followed and the manipulation was performed in class II biological safety cabinets following European standard EN 12469. The cells were maintained in the following culture medium: Minimum Essential Medium Eagle (MEM) supplemented with 1 mM sodium pyruvate, 2 mM L-glutamine, 0.1 mM non-essential amino acids, 0.05 mg/ml gentamicin and 10% fetal bovine serum.
The inhibition caused by compound NST0060 with respect to cell death caused by treatment with xanthine/xanthine oxidase which generates oxidative damage (produces free radicals such as hydrogen peroxide, superoxide anion, hydroxyl radical), which triggers cell death, was analyzed. These cells, not exceeding 15 passages, were seeded on 96-well plates treated for adherent cells with a cell concentration of 5×10^4 cells/well; 3 wells of the plate were seeded for each assay condition. […]
The cells were incubated (at 37° C. and 5% CO2) with these treatments for 22 hours, after which time WST-1 reagent (Roche) was added. […] The formazan which is formed can be detected colorimetrically since it has an absorbance of 440 nm. The reading was taken in a plate reader at 440 nm 2 hours after adding the reagent.

[3] = PAMPA, 18 h, 100 μM, pH 7.4
Excerpt: To that end, the BBB was mimicked in an in vitro system that allowed evaluating the compound without using cells, and where the so-called PAMPA (Parallel Artificial Membrane Permeation Assay) was used, using a sandwich system considering the crossing of compounds by means of passive diffusion.
A mixture of marketed lipids derived from pig brain with a phospholipid composition very similar to that which forms the barrier and known as PBL (Porcine Polar Brain Lipid) was used to mimic the blood-brain barrier. This compound was stored at −20° C. dissolved in dodecane at 100 μg/ml in glass vials.
To that end, a 1/100 dilution of the compounds was performed, being the DMSO content in all cases 1%.
Five microliters of PBL at 20 μg/ml prepared from the frozen stock at 100 μg/mL were added in a 96-well filter plate, with a PVDF membrane and a pore size of 45 μm (MAIPN4550, Millipore). After 2 minutes, 300 μl of the phosphate buffer used to dilute the compounds were added. […] After that time, 100 μl from the wells of the donor plates and acceptor plates were transferred to a special 96-well plate for UV reading. […] The percentage of barrier crossing as well as the effective permeability (Pe) were calculated from the spectrophotometric data. […]
[Drug]acceptor=Absorbance of the acceptor well
[Drug]equilibrium=Absorbance of the mean of the basal wells/2 […]

[4] = test system: human neuroblastoma SK-N-MC cells; experiment: Inhibition of DNA fragmentation (sub-G1, flow cytometry) in camptothecin cell model of apoptosis; format: cell-based; conditions: pretreatment 24 hours at 10 μM; 50 μM CPT 6 hours
Experimental: The assay was performed on human neuroblastoma SK-N-MC cells in culture, maintained as described in section 2.1.
The inhibition caused by compound NST0060 with respect to apoptosis caused by treatment with camptothecin (CPT), which inhibits the topoisomerase I enzyme, prevents DNA duplication and triggers apoptotic cell death. These cells, not exceeding 15 passages, were seeded on 6-well plates treated for adherent cells with a cell concentration of 7×10^5 cells/well; 2 wells of the plate were seeded for each assay condition.
After 24 hours of cell incubation (at 37° C. and 5% CO2), cell pretreatment was performed with 10 and 40 μM of NST0060 for 24 hours; they were subsequently treated with 50 μM CPT for 6 hours. Furthermore, Z-VAD-fmk at 50 μM was used as positive control for inhibition.
After treatment, the cells were collected along with their culture medium and centrifuged at 300×g for 5 minutes. The medium was removed, a washing was performed with PBS and the cells were fixed for 2 minutes with 500 μl of 70% ethanol at −20° C. […] After this time they were analyzed by flow cytometry, comparing the fluorescence of propidium iodide with respect to the amount of DNA. The percentage of apoptosis was measured on the sub-G1 region of each of the conditions.

[5] = biological target: T1, 3-hydroxy-3-methylglutaryl coenzyme A reductase (HMGR) (Homo sapiens, UniProt P04035); experiment: Inhibition of HMGR enzyme activity in vitro, NADPH absorbance at 340 nm; format: biochemical; conditions: active forms (activated with 0.1 N NaOH); five independent assays in duplicate
T1 sequence (P04035 340-888 limits assumed): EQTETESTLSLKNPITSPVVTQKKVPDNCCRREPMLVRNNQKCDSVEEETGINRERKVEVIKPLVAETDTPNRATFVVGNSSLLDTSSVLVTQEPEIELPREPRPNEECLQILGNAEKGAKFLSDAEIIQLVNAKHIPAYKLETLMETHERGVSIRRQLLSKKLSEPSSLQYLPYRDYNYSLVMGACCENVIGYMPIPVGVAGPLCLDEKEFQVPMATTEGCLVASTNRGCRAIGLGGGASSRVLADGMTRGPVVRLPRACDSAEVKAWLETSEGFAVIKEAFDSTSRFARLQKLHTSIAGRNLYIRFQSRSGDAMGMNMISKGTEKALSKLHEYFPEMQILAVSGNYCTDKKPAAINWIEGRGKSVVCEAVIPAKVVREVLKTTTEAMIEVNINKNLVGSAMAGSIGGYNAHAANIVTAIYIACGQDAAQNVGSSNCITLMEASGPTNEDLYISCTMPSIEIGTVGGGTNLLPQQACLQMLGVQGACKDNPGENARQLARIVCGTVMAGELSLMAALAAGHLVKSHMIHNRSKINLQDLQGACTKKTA
Experimental: The assay was carried out in a 96-well plate, with a total reaction volume of 200 μl.

Which results are given for `CCCC(CCC)C(=O)O[C@H]1C[C@@H](C)C=C2C=C[C@H](C)[C@H](CC[C@@H]3C[C@@H](O)CC(=O)O3)[C@H]21` [NST0060, 2-propylpentanoic acid (1S,3R,7S,8S,8aR)-1,2,3,7,8,8a-hexahydro-3,7-dimethyl-8-[2-[(2R,4R)-tetrahydro-4-hydroxy-6-oxo-2H-pyran-2-yl]ethyl]-1-naphthalenyl ester]?
Mortality (dead larvae with respect to the total) ([1]; Dose 1 mg/kg): 0/30; Mortality (dead larvae with respect to the total) ([1]; Dose 3 mg/kg): 0/30; Mortality (dead larvae with respect to the total) ([1]; Dose 10 mg/kg): 7/30; Mortality (dead larvae with respect to the total) ([1]; Dose 30 mg/kg): 30/30; Mortality (dead larvae with respect to the total) ([1]; Dose 100 mg/kg): 30/30; deaths out of 30 animals ([1]; dose of 10 mg/Kg, 72 h): 7; maximum protection against cell death caused by XXO [2]: 80%; % BBB crossing [3]: 29.8 ± 2.4%; maximum protection against apoptosis (DNA fragmentation) caused by CPT [4]: 41%; IC50 [5]: 126 ± 34.6 nM
